Measurements: the supplement of paper PMC4932681
Counter-ions that a name gives are not always drawn.

Assays:
Assay in all cases: viability inhibition at highest dose (% inhibition); higher = more growth inhibition
[1] = tested on: T-47D Tam1; conditions: 4-OH-tamoxifen in medium 1 µM; 72 h
In short: (§1)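 Breast cancer cell lines and their resistant derivatives were seeded into 384-well plates holding FO2Baq library drugs at five concentrations spanning a 10 000-fold range. Resistant lines were in medium with 1 μM of the selecting drug. Cells were incubated 72 h at 37 °C, and CellTiter-Glo viability was read on a PHERAstar and normalised to vehicle-only and positive controls. Drug sensitivity score, relative IC50 (curve midpoint) and top-dose inhibition came from logistic dose–response fits (Breeze pipeline).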

[2] = tested on: MCF-7; conditions: 72 h
In short: as §1

[3] = tested on: ZR-75-1 Tam1; conditions: 4-OH-tamoxifen in medium 1 µM; 72 h
In short: as §1

[4] = tested on: T-47D; conditions: 72 h
In short: as §1

[5] = tested on: MCF-7 Tam1; conditions: 4-OH-tamoxifen in medium 1 µM; 72 h
In short: as §1

[6] = tested on: T-47D Tam2; conditions: 4-OH-tamoxifen in medium 1 µM; 72 h
In short: as §1

[7] = tested on: BT-474 Tam2; conditions: 4-OH-tamoxifen in medium 1 µM; 72 h
In short: as §1

[8] = tested on: BT-474; conditions: 72 h
In short: as §1

[9] = tested on: ZR-75-1; conditions: 72 h
In short: as §1

[10] = tested on: ZR-75-1 Tam2; conditions: 4-OH-tamoxifen in medium 1 µM; 72 h
In short: as §1

[11] = tested on: BT-474 Tam1; conditions: 4-OH-tamoxifen in medium 1 µM; 72 h
In short: as §1

SMILES	viability inhibition at highest dose [1]	viability inhibition at highest dose ([2]; 4-OH-tamoxifen in medium 0 µM)	viability inhibition at highest dose ([2]; 4-OH-tamoxifen in medium 1 µM)	viability inhibition at highest dose [3]	viability inhibition at highest dose ([4]; 4-OH-tamoxifen in medium 0 µM)	viability inhibition at highest dose ([4]; 4-OH-tamoxifen in medium 1 µM)	viability inhibition at highest dose [5]	viability inhibition at highest dose [6]	viability inhibition at highest dose [7]	viability inhibition at highest dose ([8]; 4-OH-tamoxifen in medium 0 µM)	viability inhibition at highest dose ([8]; 4-OH-tamoxifen in medium 1 µM)	viability inhibition at highest dose ([9]; 4-OH-tamoxifen in medium 0 µM)	viability inhibition at highest dose ([9]; 4-OH-tamoxifen in medium 1 µM)	viability inhibition at highest dose [10]	viability inhibition at highest dose [11]
Nc1nc(=O)c2c([nH]1)NCC(CNc1ccc(C(=O)N[C@@H](CCC(=O)O)C(=O)O)cc1)N2C=O (mixture of isomers) [Folinic acid] (drug 990000 nM)	-0.031	0.626	3.23	1.59	3.41	-2.78	-1.58	-14.6	3.09	1.3	-8.34	3.64	-3.47	5.23	3.17
Cc1[nH]c2ccccc2c1CCNCc1ccc(/C=C/C(=O)NO)cc1 [Panobinostat] (drug 1000 nM)	85.3	89.4	88.4	43.1	96.4	95.5	21.3	68.7	69.6	87.5	97.2	50.5	40.7	51.4	84.4
O=C(c1ccc(OCCN2CCCCC2)cc1)c1c(-c2ccc(O)cc2)sc2cc(O)ccc12 [Raloxifene  HCl] (drug 10000 nM)	12.6	33.2	33.8	9.11	11.3	9.48	21.5	25.9	34.8	22.8	54	11.9	13.3	2.72	44.3
CC(=O)O[C@@]12CO[C@@H]1C[C@H](O)[C@@]1(C)C(=O)[C@H](O)C3=C(C)[C@@H](OC(=O)[C@H](O)[C@@H](NC(=O)OC(C)(C)C)c4ccccc4)C[C@@](O)([C@@H](OC(=O)c4ccccc4)[C@H]21)C3(C)C [Docetaxel] (drug 1000 nM)	27.5	31.6	24.3	6.28	44.4	8.26	-2.6	37.3	13.4	45.8	62.5	-2.11	1.03	1.01	38.1
Nc1nc(Cl)nc2c1ncn2[C@@H]1O[C@H](CO)[C@@H](O)[C@@H]1F [Clofarabine] (drug 10000 nM)	38.6	32.2	10.4	23.6	35.1	43	-1.02	27.8	-3.66	-7.9	-34.5	21.8	14.8	22.2	-21.8
CO[C@H]1C[C@@H]2CC[C@@H](C)[C@@](O)(O2)C(=O)C(=O)N2CCCC[C@H]2C(=O)O[C@H]([C@H](C)C[C@@H]2CC[C@@H](OC(=O)C(C)(CO)CO)[C@H](OC)C2)CC(=O)[C@H](C)/C=C(\C)[C@@H](O)[C@@H](OC)C(=O)[C@H](C)C[C@H](C)/C=C/C=C/C=C/1C [Temsirolimus] (drug 100 nM)	31.8	40.1	35.9	30.5	26.7	13.2	10.6	24	14.5	8.72	3.21	33.7	28.7	36.2	20.6
C[C@]12C=CC(=O)C=C1CC[C@@H]1[C@@H]2C(=O)C[C@@]2(C)[C@H]1CC[C@]2(O)C(=O)CO [Prednisone] (drug 10000 nM)	0.12	4.17	-2.57	-0.823	-2.36	-14.5	-6.7	6.96	-4.01	-5.13	-15.9	-12.2	-9.15	5.99	0.805
Oc1ncc(N(CCCl)CCCl)c(O)n1 [Uracil mustard] (drug 10000 nM)	-0.922	-11.6	11.6	3.73	-4.46	-6.35	-4.85	1.54	6.63	-4.25	-3.71	0.272	-3.68	2.56	6.37
C/C(=C\c1csc(C)n1)[C@@H]1C[C@@H]2O[C@]2(C)CCC[C@H](C)[C@H](O)[C@@H](C)C(=O)C(C)(C)[C@@H](O)CC(=O)O1 [Patupilone  (Epothilone B)] (drug 1000 nM)	22	24.1	21.5	1.36	38.1	8.65	-9.25	33.4	28	49.2	56.4	8.28	-8.45	1.47	38.2
COc1ccc(S(=O)(=O)Nc2cccnc2Nc2ccc(O)cc2)cc1 [ABT-751] (drug 10000 nM)	58.6	50.3	44.6	4.33	-0.891	2.69	1.63	38.3	54.2	42.6	73.1	36.3	14.9	18.6	64.7
COc1c2occc2cc2ccc(=O)oc12 [Methoxsalen] (drug 10000 nM)	-4.99	-6.63	1.6	2.54	-17.2	-5.34	-6.39	7.26	1.89	-4.57	7.92	-8.57	1.74	-6.82	10.8
C[C@]1(O)C[C@@H](c2nc(-c3ccc4ccc(-c5ccccc5)nc4c3)c3c(N)nccn32)C1 [Linsitinib (OSI-906)] (drug 10000 nM)	84.2	52.5	62.4	12.2	28.3	33.2	38.1	29	7.88	-2.14	21.6	14.6	20.1	16.3	3.26
COc1cc(CCc2cc(NC(=O)c3ccc(N4CC(C)NC(C)C4)cc3)n[nH]2)cc(OC)c1 (stereo not given) [AZD4547] (drug 1000 nM)	-9.97	-4.05	2.4	1.86	-22.2	8.39	-1.84	-1.01	-5.95	-7.84	5.15	-14.5	-5.83	-8.6	8.22
COC1=C2C[C@@H](C)C[C@H](OC)[C@H](O)[C@@H](C)/C=C(\C)[C@H](OC(N)=O)[C@@H](OC)/C=C\C=C(/C)C(=O)NC(=CC1=O)C2=O [Geldanamycin] (drug 10000 nM)	82.4	85.8	78.5	69	73.3	74.9	58.9	67.1	82.1	67.6	69.7	62	80.5	66.7	83.6
COc1cc2nccc(Oc3ccc(NC(=O)C4(C(=O)Nc5ccc(F)cc5)CC4)cc3)c2cc1OC [Cabozantinib (XL184)] (drug 1000 nM)	2.69	5.85	11.3	6.25	-4.29	-1.77	1.76	10.4	7.72	-10.4	16	-14.6	-2.98	2.11	22.4
O=C(O)C1(C(=O)O)CCC1.[NH2-].[NH2-].[Pt+2] [Carboplatin] (drug 10000 nM)	-4.98	1.69	6.48	2.36	-16.3	-18	-6.52	1.93	3.89	-12.2	-19	-16.2	-1.87	-0.671	-1.28
C[C@@]1(C(=O)Nc2ccc(F)nc2)CCCN1c1nc(Nc2cc(C3CC3)n[nH]2)c2cccn2n1 (drug 10000 nM)	46.5	67.7	81.4	-16.4	48.6	41.9	68.9	59.2	6.42	13	23.1	-26.3	-1.41	-9.78	15.1
C[C@]12CC[C@@H]3c4ccc(OC(=O)N(CCCl)CCCl)cc4CC[C@H]3[C@@H]1CC[C@@H]2O [Estramustine] (drug 990000 nM)	-1.27	-17	-12.1	0.469	-27.1	-3.37	-4.18	4.35	1.08	-9.96	-0.556	-4.2	3.75	-3.72	-8.94
CNNCc1ccc(C(=O)NC(C)C)cc1 [Procarbazine] (drug 10000 nM)	0.22	-15.7	-26.1	5.75	-8.64	3.29	-2.96	18.8	-9.69	-6.73	-0.151	-8.18	1.35	-4.74	3.72
N#Cc1ccc(C(c2ccc(C#N)cc2)n2cncn2)cc1 [Letrozole] (drug 10000 nM)	-0.0184	-10.7	-14.2	-0.517	-9.48	0.428	-6.5	6.57	-3.68	-5.7	-8.86	-2.82	-9.49	-2.74	-6.74
Cc1cn(-c2cc(NC(=O)c3ccc(C)c(Nc4nccc(-c5cccnc5)n4)c3)cc(C(F)(F)F)c2)cn1 [Nilotinib] (drug 10000 nM)	-0.169	5.79	5.88	2.47	-17.5	-20.8	-8.69	2.08	1.02	-6.7	1.42	-11.8	-6.98	-2.53	22.9
O=C(O)C(=O)O.[NH-][C@@H]1CCCC[C@H]1[NH-].[Pt+2] [Oxaliplatin] (drug 10000 nM)	1.11	4.06	3.34	4.08	-7.69	-13.3	-5.32	5.52	1.63	-9.5	-21.1	2.13	-0.0598	5.48	-7.39
CC[C@@H]1C(=O)OC[C@@H]1Cc1cncn1C [Pilocarpine] (drug 40000 nM)	-0.157	-3.51	9.03	8.48	-7.15	-0.389	-6.84	9.72	6.51	-0.744	-6.73	-3.18	-6.19	-0.127	4.36
CC(O)(CS(=O)(=O)c1ccc(F)cc1)C(=O)Nc1ccc(C#N)c(C(F)(F)F)c1 (stereo not given) [Bicalutamide] (drug 10000 nM)	5.87	-0.676	5.7	-0.584	-16.4	10.8	-6.64	14.4	-6.57	-18.1	-8.62	-10.4	1.52	-0.971	-10.4
COc1cc2c(N3CCN(C(=O)Nc4ccc(OC(C)C)cc4)CC3)ncnc2cc1OCCCN1CCCCC1 [Tandutinib] (drug 1000 nM)	-4.68	-5.26	-13.7	1.06	-12.3	-11.9	-14.2	5.77	-13.2	-11.4	-9.77	-10	-3.58	-7.47	-0.467
